Data on 24 compounds can be found in ChEMBL document CHEMBL5291721, “A preclinical secondary pharmacology resource illuminates target-adverse drug reaction associations of marketed drugs” (Nat Commun, 2023).

Each structure is given as a SMILES string.

For test [1], the target named is T1, 5-hydroxytryptamine receptor 3A (Homo sapiens, UniProt P46098).
T1 sequence (P46098 whole entry): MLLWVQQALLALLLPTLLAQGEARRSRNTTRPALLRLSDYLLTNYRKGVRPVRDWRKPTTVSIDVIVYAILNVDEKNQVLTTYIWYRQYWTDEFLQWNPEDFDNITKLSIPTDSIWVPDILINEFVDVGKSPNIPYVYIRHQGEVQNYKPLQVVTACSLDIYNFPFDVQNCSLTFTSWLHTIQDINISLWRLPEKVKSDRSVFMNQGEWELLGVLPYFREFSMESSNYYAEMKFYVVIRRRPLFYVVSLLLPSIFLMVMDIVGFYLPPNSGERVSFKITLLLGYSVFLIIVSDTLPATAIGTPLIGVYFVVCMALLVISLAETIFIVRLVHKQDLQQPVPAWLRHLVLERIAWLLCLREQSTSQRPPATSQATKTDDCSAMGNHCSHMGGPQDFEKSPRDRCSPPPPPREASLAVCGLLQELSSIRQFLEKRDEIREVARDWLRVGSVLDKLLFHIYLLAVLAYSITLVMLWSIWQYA
Type of test: functional.

The target of test [2] is T2, 5-hydroxytryptamine receptor 2C (Homo sapiens, UniProt P28335).
T2 sequence (P28335 whole entry): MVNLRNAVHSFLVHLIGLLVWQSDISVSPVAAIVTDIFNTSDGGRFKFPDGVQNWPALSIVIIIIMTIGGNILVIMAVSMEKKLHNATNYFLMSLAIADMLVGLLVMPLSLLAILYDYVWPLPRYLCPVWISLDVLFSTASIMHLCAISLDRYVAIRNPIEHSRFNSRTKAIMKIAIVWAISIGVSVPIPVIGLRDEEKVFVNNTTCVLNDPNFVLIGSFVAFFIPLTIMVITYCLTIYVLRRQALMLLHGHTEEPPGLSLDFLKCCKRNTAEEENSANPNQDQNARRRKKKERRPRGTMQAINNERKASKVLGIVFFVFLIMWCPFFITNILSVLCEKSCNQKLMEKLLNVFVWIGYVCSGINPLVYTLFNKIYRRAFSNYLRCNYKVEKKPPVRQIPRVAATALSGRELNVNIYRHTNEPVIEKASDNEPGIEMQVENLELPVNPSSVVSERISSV

The target in test [3] is T3, Alpha-2A adrenergic receptor (Homo sapiens, UniProt P08913).
T3 sequence (P08913 whole entry): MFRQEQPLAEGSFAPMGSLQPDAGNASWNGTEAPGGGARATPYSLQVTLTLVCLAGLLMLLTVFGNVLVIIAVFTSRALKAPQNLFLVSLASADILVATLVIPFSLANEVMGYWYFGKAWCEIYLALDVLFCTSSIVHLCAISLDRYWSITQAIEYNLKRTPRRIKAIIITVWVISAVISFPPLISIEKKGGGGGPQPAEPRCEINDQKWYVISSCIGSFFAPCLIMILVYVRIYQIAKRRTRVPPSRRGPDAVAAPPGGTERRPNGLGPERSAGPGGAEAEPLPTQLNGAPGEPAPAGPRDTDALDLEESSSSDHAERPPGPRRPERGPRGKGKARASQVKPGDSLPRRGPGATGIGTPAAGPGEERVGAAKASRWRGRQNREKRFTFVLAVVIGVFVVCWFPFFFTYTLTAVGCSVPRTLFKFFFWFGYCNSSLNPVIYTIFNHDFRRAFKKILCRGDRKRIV
The class given is functional, cell-based.

Test [4] concerns the target T4, Muscarinic acetylcholine receptor M2 (Homo sapiens, UniProt P08172).
T4 sequence (P08172 whole entry): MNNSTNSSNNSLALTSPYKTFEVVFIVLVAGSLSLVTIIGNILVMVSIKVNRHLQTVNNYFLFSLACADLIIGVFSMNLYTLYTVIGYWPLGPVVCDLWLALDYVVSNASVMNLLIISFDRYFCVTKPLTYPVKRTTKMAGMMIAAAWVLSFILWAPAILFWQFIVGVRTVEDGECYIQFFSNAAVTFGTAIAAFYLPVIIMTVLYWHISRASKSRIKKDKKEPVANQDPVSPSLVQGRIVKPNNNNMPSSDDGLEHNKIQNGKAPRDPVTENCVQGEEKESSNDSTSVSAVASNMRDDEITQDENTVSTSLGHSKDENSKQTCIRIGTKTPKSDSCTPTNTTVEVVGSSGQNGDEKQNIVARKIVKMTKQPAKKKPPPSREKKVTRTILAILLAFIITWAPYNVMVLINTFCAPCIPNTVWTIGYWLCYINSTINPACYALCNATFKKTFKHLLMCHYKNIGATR
Type of test: functional, cell-based.

Test [5] has as its target T5, B2 bradykinin receptor (Homo sapiens, UniProt P30411).
T5 sequence (P30411 whole entry): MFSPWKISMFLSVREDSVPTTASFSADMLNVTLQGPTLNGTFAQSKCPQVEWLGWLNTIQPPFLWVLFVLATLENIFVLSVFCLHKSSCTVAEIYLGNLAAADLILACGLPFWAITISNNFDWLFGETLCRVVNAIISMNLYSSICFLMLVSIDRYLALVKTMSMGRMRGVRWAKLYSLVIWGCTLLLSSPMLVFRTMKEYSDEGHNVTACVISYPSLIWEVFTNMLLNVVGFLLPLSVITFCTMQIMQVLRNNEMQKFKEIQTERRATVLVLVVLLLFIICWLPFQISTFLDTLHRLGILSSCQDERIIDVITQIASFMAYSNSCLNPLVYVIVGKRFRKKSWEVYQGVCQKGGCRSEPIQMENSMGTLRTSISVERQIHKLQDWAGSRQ

Test [6] deals with Vasopressin V2 receptor (Homo sapiens, UniProt P30518).
Note: assay procedure not described here.

Vasopressin V2 receptor, sequence (P30518 whole entry): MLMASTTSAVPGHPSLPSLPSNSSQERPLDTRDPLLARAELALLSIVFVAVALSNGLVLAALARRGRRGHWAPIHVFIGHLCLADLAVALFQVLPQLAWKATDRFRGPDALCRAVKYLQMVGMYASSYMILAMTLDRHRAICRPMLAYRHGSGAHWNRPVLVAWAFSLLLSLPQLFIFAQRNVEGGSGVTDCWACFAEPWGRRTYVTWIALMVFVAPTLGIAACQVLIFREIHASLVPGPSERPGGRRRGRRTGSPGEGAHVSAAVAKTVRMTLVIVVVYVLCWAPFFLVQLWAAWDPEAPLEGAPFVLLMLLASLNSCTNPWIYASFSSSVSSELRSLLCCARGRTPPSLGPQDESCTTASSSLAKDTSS

Turning to `Cc1nnc(SCC2=C(C(=O)O)N3C(=O)[C@@H](NC(=O)Cn4cnnn4)[C@H]3SC2)s1` [CEFAZOLIN], the AC50 in test [1] is over 300 µM; in test [2], over 300 µM; in test [3] it was over 300 µM; in test [4] it was over 300 µM; in test [5] it was over 30 µM; in test [6], over 30 µM.

As to `CC(C)C[C@H](NC(=O)[C@@H](O)[C@H](N)Cc1ccccc1)C(=O)O` [UBENIMEX], the AC50 in test [1], in test [2], in test [3] and in test [4] was over 30 µM each time.

Turning to `CC[C@H](C)C(=O)O[C@H]1C[C@@H](C)C=C2C=C[C@H](C)[C@H](CC[C@@H]3C[C@@H](O)CC(=O)O3)[C@H]21` [LOVASTATIN], the AC50 in test [1] is over 30 µM; in test [2], over 30 µM; in test [3] it was over 10 µM; in test [4], over 10 µM; in test [5] it was over 30 µM; in test [6], over 30 µM.

`CC(C)[C@H](N)C(=O)OCCOCn1cnc2c(=O)[nH]c(N)nc21` [VALACYCLOVIR]: the AC50 in test [1] was over 30 µM; in test [2], over 30 µM; in test [3], over 10 µM; in test [4], over 10 µM; in test [5], over 30 µM; in test [6], over 30 µM.

With `CC=CC1=C(C(=O)O)N2C(=O)[C@@H](NC(=O)[C@H](N)c3ccc(O)cc3)[C@H]2SC1` [CEFPROZIL], the AC50 in test [1], in test [2], in test [3], in test [4], in test [5] and in test [6] was over 30 µM in each case.

As to `Cc1nc(Nc2ncc(C(=O)Nc3c(C)cccc3Cl)s2)cc(N2CCN(CCO)CC2)n1` [DASATINIB], the AC50 in test [1] is over 30 µM; in test [2] it was 14.1 µM; in test [3], over 10 µM; in test [4] it was over 30 µM; in test [5], over 30 µM; in test [6] it was over 30 µM.

For `CC1(C)S[C@@H]2[C@H](NC(=O)C(C(=O)O)c3ccccc3)C(=O)N2[C@H]1C(=O)O` (some centres not stated) [CARBENICILLIN], the AC50 in test [1], in test [2], in test [3], in test [4], in test [5] and in test [6] was over 30 µM each time.

For `Clc1ccc(Cn2c(CN3CCCC3)nc3ccccc32)cc1` [CLEMIZOLE], the AC50 in test [1] is over 30 µM; in test [2] it was over 30 µM; in test [3], over 10 µM; in test [4] it was over 10 µM.

On to `CC(C)NC(=N)NC(=N)Nc1ccc(Cl)c(Cl)c1` [CHLORPROGUANIL], for which the values for the AC50 in test [1], in test [2] and in test [3] were over 30 µM, 7.9 µM and over 30 µM, respectively.

Turning to `CC(C)Cc1ccc([C@H](C)C(=O)O)cc1` [DEXIBUPROFEN], the half-maximal activity concentration (AC50) in test [1], in test [2], in test [3] and in test [4] was over 30 µM throughout.

Take `CCCNC(=O)NS(=O)(=O)c1ccc(Cl)cc1` [CHLORPROPAMIDE]: the AC50 in test [1] was over 30 µM; in test [2], over 30 µM; in test [3] it was over 10 µM; in test [4], over 10 µM; in test [5] it was over 30 µM; in test [6] it was over 30 µM.

Take `CN(CCOc1ccc(CC2SC(=O)NC2=O)cc1)c1ccccn1` (configuration not stated) [ROSIGLITAZONE]: the concentration at half-maximal activity (AC50) in test [1] was over 30 µM; in test [2], over 30 µM; in test [3] it was 8.6 µM; in test [4], over 30 µM; in test [5], over 30 µM; in test [6], over 30 µM.

For `CC(C(=O)O)c1ccc2oc(-c3ccc(Cl)cc3)nc2c1` (configuration not stated) [BENOXAPROFEN], the half-maximal activity concentration (AC50) in test [1], in test [2], in test [3], in test [4], in test [5] and in test [6] was over 30 µM in each case.

On to `CC(CN1c2ccccc2Sc2ccccc21)N(C)C` (configuration not stated) [PROMETHAZINE], for which the AC50 in test [1] was over 30 µM; in test [2] it was 0.5 µM; in test [4], over 30 µM; in test [5] it was over 30 µM; in test [6] it was over 30 µM.

With `COc1cc(C(C)=O)ccc1OCCCN1CCC(c2noc3cc(F)ccc23)CC1` [ILOPERIDONE], the AC50 in test [1] was over 30 µM; in test [2] it was 0.803 µM; in test [3] it was 0.45 µM; in test [4], over 30 µM.

With `CNC[C@H](O)c1ccc(O)c(O)c1` [EPINEPHRINE], the half-maximal activity concentration (AC50) in test [1], in test [2] and in test [4] was over 30 µM throughout.

For `CC(=O)Nc1ccc(CC(=O)O)cc1` [ACTARIT], the half-maximal activity concentration (AC50) in test [1], in test [2], in test [3], in test [4], in test [5] and in test [6] was over 30 µM throughout.

As for `COc1ccccc1OC1(C)OC(=O)c2ccccc2O1` (configuration not stated) [GUAIMESAL], the AC50 in test [5] and in test [6] was over 30 µM throughout.

Take `S=P(N1CC1)(N1CC1)N1CC1` [THIOTEPA]: the AC50 is over 30 µM in test [1], 9.4 µM in test [2] and 14 µM in test [3].

As to `C[N+](C)(C)CCOP(=O)(O)OP(=O)([O-])OC[C@H]1O[C@@H](n2ccc(N)nc2=O)[C@H](O)[C@@H]1O` [CITICOLINE], the concentration at half-maximal activity (AC50) in test [1], in test [2], in test [3] and in test [4] was over 30 µM in each case.

Turning to `COc1cc(C(=O)NS(=O)(=O)c2ccccc2C)ccc1Cc1cn(C)c2ccc(NC(=O)OC3CCCC3)cc12` [ZAFIRLUKAST], the AC50 in test [1] is over 30 µM; in test [5] it was over 10 µM; in test [6], over 10 µM.

On to `CCOc1cc([C@@H](CS(C)(=O)=O)N2C(=O)c3cccc(NC(C)=O)c3C2=O)ccc1OC`, for which the AC50 in test [1], in test [2], in test [3] and in test [4] was over 30 µM each time.

Consider `Cc1onc(-c2c(F)cccc2Cl)c1C(=O)N[C@@H]1C(=O)N2[C@@H]1SC(C)(C)[C@@H]2C(=O)O` [FLOXACILLIN], for which the AC50 in test [1], in test [2], in test [3] and in test [4] was over 30 µM throughout.

For the compound `CN1Cc2c(N)cccc2C(c2ccccc2)C1` (configuration not stated) [NOMIFENSINE], the AC50 in test [1], in test [3], in test [4], in test [5] and in test [6] was over 30 µM each time.
